Among the data in US20070123546A1, “2-amino-7,8-dihydro-6H-pyrido[4,3-d]pyrimidin-5-ones” (Chiron Corporation, priority 2005, published 2007) are IC50 values, retold here.

pIC50: −log10 of the molar value.

One assay deals with His-tagged N-terminal ATP binding domain (amino acid residues 9-236) of HSP90α (Homo sapiens, UniProt P07900). The experiment in a line: HSP90 inhibitor binding potency: TRF competition binding assay. The settings on record: Table 1; competition with biotinylated radicicol. Summed up:
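Competition against biotinylated radicicol for binding to the His-tagged 9-236 ATP domain of HSP90α: 2 h, room temperature, HEPES/MgCl2/KCl/BSA buffer. Streptavidin capture, then europium-labeled anti-His antibody and enhancement solution; europium counts give IC50.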
For `Cc1nc(N)nc2c1C(=O)N(Cc1ccccc1)[C@H](c1ccc(F)cc1-c1cccnc1F)C2` [Compound 2, (S)-2-Amino-6-benzyl-7-[4-fluoro-2-(2-fluoro-pyridin-3-yl)-phenyl]-4-methyl-7,8-dihydro-6H-pyrido[4,3-d]pyrimidin-5-one], the pIC50 was under 5.00.
In turn, `Cc1nc(N)nc2c1C(=O)NC(c1ccc(F)cc1-c1cccc(F)c1F)C2` (stereo not drawn) [Compound 32] showed a pIC50 of over 5.00.
Same read-out and setting: the same measure for `COc1ccc([C@H](C)N2C(=O)c3c(C)nc(N)nc3C[C@@H]2c2ccc(F)cc2Br)cc1` [Compound 4, (R)-2-Amino-7-(2-bromo-4-fluoro-phenyl)-6-[(S)-1-(4-methoxy-phenyl)-ethyl]-4-methyl-7,8-dihydro-6H-pyrido[4,3-d]pyrimidin-5-one]: under 5.00.
The same measure, in the same setting: the same measure for `COc1ncccc1-c1cc(F)ccc1C1Cc2nc(N)nc(C)c2C(=O)N1CC(C)(C)N1CCOCC1` (stereo not drawn) [Compound 38, 2-Amino-7-[4-fluoro-2-(2-methoxy-pyridin-3-yl)-phenyl]-4-methyl-6-(2-methyl-2-morpholin-4-yl-propyl)-7,8-dihydro-6H-pyrido[4,3-d]pyrimidin-5-one]: under 5.00.

The assay is the same for the next values; noted with them: Table 2; competition with biotinylated radicicol.
`COc1nc(-c2ccccc2[C@H]2Cc3nc(N)nc(C)c3C(=O)N2)cs1` [Compound 67, (R)-2-Amino-7-[2-(2-methoxy-thiazol-4-yl)-phenyl]-4-methyl-7,8-dihydro-6H-pyrido[4,3-d]pyrimidin-5-one] showed a pIC50 of over 5.00.
`COc1ccc(F)cc1-c1cc(F)ccc1[C@H]1Cc2nc(N)ncc2C(=O)N1` [Compound 55, (R)-2-Ammo-7-(5,5′-difluoro-2′-methoxy-biphenyl-2-yl)-7,8-dihydro-6H-pyrido[4,3-d]pyrimidin-5-one]: the pIC50 is over 5.00.
On the same count and under the same terms, the figure for `COc1ncc(-c2cc(F)ccc2[C@H]2Cc3nc(N)ncc3C(=O)N2)c(OC)n1` [Compound 63, (R)-2-Amino-7-[2-(2,4-dimethoxy-pyrimidin-5-yl)-4-fluoro-phenyl]-7,8-dihydro-6H-pyrido[4,3-d]pyrimidin-5-one] is under 5.00; for `COc1cnc(-c2cc(F)ccc2[C@H]2Cc3nc(N)nc(C)c3C(=O)N2)nc1OC` [Compound 51, (R)-2-Amino-7-[2-(4,5-4-methoxy-pyrimidin-2-yl)-4-fluoro-phenyl]-4-methyl-7,8-dihydro-6H-pyrido[4,3-d]pyrimidin-5-one] it is over 5.00.
`COc1cncc(-c2scnc2[C@H]2Cc3nc(N)nc(C)c3C(=O)N2)n1` [Compound 88, (R)-2-Amino-7-[5-(6-methoxy-pyrazin-2-yl)-thiazol-4-yl]-4-methyl-7,8-dihydro-6H-pyrido[4,3-d]pyrimidin-5-one] showed a pIC50 of over 5.00.

Still in this assay, the particulars now being: Table 3; competition with biotinylated radicicol.
The compound `COc1cncc(-c2cc(F)ccc2[C@H]2Cc3nc(N)nc(C)c3C(=O)N2Cc2cccnc2)n1` [Compound 164, (R)-2-Amino-7-[4-fluoro-2-(6-methoxy-pyrazin-2-yl)-phenyl]-4-methyl-6-pyridin-3-ylmethyl-7,8-dihydro-6H-pyrido[4,3-d]pyrimidin-5-one] showed a pIC50 of over 5.00.
Compound `Cc1nc(N)nc2c1C(=O)N(CC(C)C)[C@@H](c1ccc(F)cc1Br)C2` [Compound 149, (R)-2-Amino-7-(2-bromo-4-fluoro-phenyl)-6-isobutyl-4-methyl-7,8-dihydro-6H-pyrido[4,3-d]pyrimidin-5-one] had a pIC50 of under 5.00.
Regarding `COc1cncc(-c2cc(F)ccc2[C@H]2Cc3nc(N)nc(C)c3C(=O)N2Cc2ccncc2)n1` [Compound 121, (R)-2-Amino-7-[4-fluoro-2-(6-methoxy-pyrazin-2-yl)-phenyl]-4-methyl-6-pyridin-4-ylmethyl-7,8-dihydro-6H-pyrido[4,3-d]pyrimidin-5-one], the pIC50 is over 5.00.
Same read-out and setting: the same measure for `COc1cccc(-c2cc(F)ccc2[C@H]2Cc3nc(N)nc(C)c3C(=O)N2Cc2ccc(F)cc2)n1` [Compound 160, (R)-2-Amino-6-(4-fluoro-benzyl)-7-[4-fluoro-2-(6-methoxy-pyridin-2-yl)-phenyl]-4-methyl-7,8-dihydro-6H-pyrido[4,3-d]pyrimidin-5-one]: over 5.00.
Still for that read-out and setting: the same measure for `COc1cncc(-c2cc(F)ccc2[C@H]2Cc3nc(N)nc(C)c3C(=O)N2Cc2ccccc2F)n1` [Compound 129, (R)-2-Amino-6-(2-fluoro-benzyl)-7-[4-fluoro-2-(6-methoxy-pyrazin-2-yl)-phenyl]-4-methyl-7,8-dihydro-6H-pyrido[4,3-d]pyrimidin-5-one]: over 5.00; for `COc1cccc(-c2cc(F)ccc2[C@H]2Cc3nc(N)nc(C)c3C(=O)N2CC(C)C)n1` [Compound 155, (R)-2-Amino-7-[4-fluoro-2-(6-methoxy-pyridin-2-yl)-phenyl]-6-isobutyl-4-methyl-7,8-dihydro-6H-pyrido[4,3-d]pyrimidin-5-one]: over 5.00; for `COc1cncc(-c2cc(F)ccc2[C@H]2Cc3nc(N)nc(C)c3C(=O)N2Cc2ccccc2Cl)n1` [Compound 130, (R)-2-Amino-6-(2-chloro-benzyl)-7-[4-fluoro-2-(6-methoxy-pyrazin-2-yl)-phenyl]-4-methyl-7,8-dihydro-6H-pyrido[4,3-d]pyrimidin-5-one]: over 5.00.
`Cc1nc(N)nc2c1C(=O)NC(c1ccccc1)C2` (stereo not drawn) [Compound 92, 2-Amino-4-methyl-7-phenyl-7,8-dihydro-6H-pyrido[4,3-d]pyrimidin-5-one] had a pIC50 of under 5.00.
`COc1nc(-c2cc(F)ccc2[C@H]2Cc3nc(N)nc(C)c3C(=O)N2Cc2ccccc2Cl)cnc1N` [Compound 126, (R)-2-Amino-7-[2-(5-amino-6-methoxy-pyrazin-2-yl)-4-fluoro-phenyl]-6-(2-chloro-benzyl)-4-methyl-7,8-dihydro-6H-pyrido[4,3-d]pyrimidin-5-one] had a negative logarithm of the IC50 (pIC50) of over 5.00.

The assay is the same for the next values; noted with them: Table 4; competition with biotinylated radicicol.
As to `COc1ccc(-c2cc(F)ccc2[C@H]2Cc3nc(N)nc(C)c3C(=O)N2)s1` [Compound 209, (R)-2-Amino-7-[4-fluoro-2-(5-methoxy-thiophen-2-yl)-phenyl]-4-methyl-7,8-dihydro-6H-pyrido[4,3-d]pyrimidin-5-one], the pIC50 was over 5.00.
`COc1ccc([C@H]2Cc3nc(N)nc(C)c3C(=O)N2)c(-c2cncc(OC)n2)c1` [Compound 227, (R)-2-Amino-7-[4-methoxy-2-(6-methoxy-pyrazin-2-yl)-phenyl]-4-methyl-7,8-dihydro-6H-pyrido[4,3-d]pyrimidin-5-one] showed a pIC50 of over 5.00.
On the same count and under the same terms, the same measure for `CCc1nc(N)nc2c1C(=O)N[C@@H](c1ccccc1-c1cccc(OC)n1)C2` [Compound 198, (R)-2-Amino-4-ethyl-7-[2-(6-methoxy-pyridin-2-yl)-phenyl]-7,8-dihydro-6H-pyrido[4,3-d]pyrimidin-5-one]: over 5.00; for `CCOc1nc(-c2ccccc2[C@H]2Cc3nc(N)nc(C)c3C(=O)N2)cs1` [Compound 230, (R)-2-Amino-7-[2-(2-ethoxy-thiazol-4-yl)-phenyl]-4-methyl-7,8-dihydro-6H-pyrido[4,3-d]pyrimidin-5-one]: over 5.00; for `COc1cncc(-c2ccccc2[C@H]2Cc3nc(N)nc(C)c3C(=O)N2)n1` [Compound 194, (R)-2-Amino-7-[2-(6-methoxy-pyrazin-2-yl)-phenyl]-4-methyl-7,8-dihydro-6H-pyrido[4,3-d]pyrimidin-5-one]: over 5.00.
Same read-out and setting: the same measure for `COc1cncc(-c2scnc2[C@@H]2Cc3nc(N)ncc3C(=O)N2)n1` [Compound 224, (S)-2-Amino-7-[5-(6-methoxy-pyrazin-2-yl)-thiazol-4-yl]-7,8-dihydro-6H-pyrido[4,3-d]pyrimidin-5-one]: over 5.00.

The term pIC50 denotes the IC50 on a negative log10 scale, so that one unit is a factor of ten. A higher pIC50 goes with a small IC50.
